{"source": "patent US20250109504A1", "about": "“HETEROCYCLIC NON-TRIAZOLE COMPOUNDS AND METHODS FOR INHIBITING CORROSION IN INDUSTRIAL WATER TREATMENT” (CHEMTREAT, INC., priority 2023, published 2025)", "key": {"[1]": {"assay": "Solubility in sodium hydroxide (NaOH)", "format": "physicochemical", "settings": "solubilized in sodium hydroxide (NaOH)", "excerpt": "Moreover, conventional treatment methods involve solubilizing corrosion inhibitors in sodium hydroxide (NaOH). Solubility of benzimidazoles and polymeric acids such as 4,5-imidazoledicarboxylic acid in NaOH is low, i.e., less than 2%. […] These and other issues are addressed by the present disclosure."}, "[2]": {"assay": "LPR corrosion test of copper coupons in synthetic water with free chlorine (Gamry corrosion cell)", "settings": "for deterioration in corrosion resistance when free chlorine is added: FAC 1 ppm after 1 hr", "procedure": "Several classes of compounds at various concentrations were tested to determine their potential to inhibit corrosion of copper alloy in aqueous systems as shown in Table 1 below.\n1 liter samples of synthetic water were each dosed with 5 ppm of a different glucamide compound (A, B, C, D) according to Formula (I) above and 50 ppm of a standard scale inhibitor. Another 1 liter sample of synthetic water was dosed with 4 ppm of tolyltriazole and 50 ppm of the standard scale inhibitor product.\nThe apparatus used for the corrosion testing was a Gamry Multiport Corrosion Cell and Gamry Reference 600+ potentiostat with multiplexor. Copper coupons (CDA110) were added to the sample cells, and the cells were heated to 50° C. and maintained at this temperature throughout the testing. The cells were continuously stirred at a speed of 350 rpm. A cylindrical working electrode was submerged into the test solutions, and an LPR sweep (linear polarization resistance) was performed every hour for 18 hours. After the one hour mark, 1 ppm of free chlorine was dosed into the corrosion cell."}}, "data": [{"compound": "O=C(O)c1nc[nH]c1C(=O)O", "note": "[4,5-imidazoledicarboxylic acid]", "values": [{"measurement": "Solubility in NaOH", "setting": "[1]", "value": "less than 2%"}]}, {"compound": "Imidazole dicarboxylate [IMDCC]", "values": [{"measurement": "corrosion inhibition properties (corrosion rates, FIG. 1) as compared to the triazole inhibitors", "setting": "[2]; Example 1, IMDCC 5, 2.5, 1 ppm vs HST 0.5/0.25/0.1 ppm and TTA 0.5 ppm, CDA110, 50° C., entire 18 hour period", "value": "superior corrosion inhibition properties"}, {"measurement": "deterioration in corrosion resistance when free chlorine is added", "setting": "[2]; Example 1, IMDCC 5, 2.5, 1 ppm, CDA110, 50° C.", "value": "do not exhibit any substantial deterioration"}, {"measurement": "corrosion inhibition properties (corrosion rates, FIG. 2) as compared to the triazole inhibitors", "setting": "[2]; Example 2, IMDCC 1 ppm, CT1 + IMDCC 100 ppm + 1 ppm vs HST 0.5 ppm, CDA110, 50° C., entire 18 hour period", "value": "superior corrosion inhibition properties"}, {"measurement": "deterioration in corrosion resistance when free chlorine is added", "setting": "[2]; Example 2, IMDCC 1 ppm, CT1 + IMDCC 100 ppm + 1 ppm, unlike the CT1 inhibitor", "value": "do not exhibit any substantial deterioration"}, {"measurement": "corrosion inhibition properties (corrosion rates, FIG. 3) as compared to the triazole inhibitors", "setting": "[2]; Example 3, IMDCC 2.0, 1 ppm, HST + IMDCC 0.10+0.90 to 0.90+0.10 ppm vs HST 1/0.5/0.25 ppm, CDA110, 50° C., entire 18 hour period", "value": "superior corrosion inhibition properties"}, {"measurement": "deterioration in corrosion resistance when free chlorine is added", "setting": "[2]; Example 3, IMDCC 2.0, 1 ppm, HST + IMDCC 0.10+0.90 to 0.90+0.10 ppm", "value": "do not exhibit any substantial deterioration"}, {"measurement": "corrosion inhibition properties (corrosion rates, FIG. 4) as compared to the triazole inhibitors", "setting": "[2]; Example 4, IMDCC 2.0, 1 ppm, CT2 + IMDCC 50 ppm + 1 ppm, 25 ppm + 2 ppm, CDA110, 50° C., entire 18 hour period", "value": "superior corrosion inhibition properties"}, {"measurement": "deterioration in corrosion resistance when free chlorine is added", "setting": "[2]; Example 4, IMDCC 2.0, 1 ppm, CT2 + IMDCC 50 ppm + 1 ppm, 25 ppm + 2 ppm, unlike the CT2 inhibitor", "value": "do not exhibit any substantial deterioration"}]}]}
